# Assay results as given in ChEMBL document CHEMBL1157539, “Thousands of chemical starting points for antimalarial lead identification” (Nature, 2010).
# Tested on: Plasmodium falciparum
# Experiment: GSK_TCMDC: Inhibition of Plasmodium falciparum 3D7 in whole erythrocytes, using parasite LDH activity as an index of growth.
# Type: functional, organism-based
# Conditions: not given
row,Compound,XC50 [nM]
1,N#Cc1ccc2c(c1)CN(CC[C@H]1CC[C@H](NC(=O)/C=C/c3c[nH]c4ccccc34)CC1)CC2,897
2,COC(=O)/C=C/c1ccc(CC(C)NCC(O)c2cccc(C(F)(F)F)c2)cc1 (stereo not given),775

# Same assay, conditions: Plasmodium falciparum, 3D7
row,Compound,XC50 [nM]
1,Clc1cc(Nc2ncnc3cc(C#C[C@H]4CCCN4)sc23)cc2nc(Cc3ccccc3)[nH]c12,852
2,CCOc1cc(C)ccc1C1CCN(CCCCNC(=O)c2nc(-c3ccc(C(F)(F)F)cc3)[nH]c2C)CC1,729
3,CCOC(=O)Cn1ccc2c(NCc3ccccc3)nc(C)nc21,374
4,CCCCOc1ccc(-n2c(Nc3ccccc3)nc3cc(S(N)(=O)=O)ccc32)cc1,887
5,Cc1cc(=NN=Cc2ccc(Cl)cc2)c2cccc(C)c2[nH]1,723
6,COc1ccc(Cl)cc1NC(=O)Nc1ccc2c(c1)CCN(C1CCC1)CC2,814
7,CN1CCN(c2ccnc3ccc(NC(=O)Nc4ccccc4Br)cc23)CC1,372
8,Oc1cc(NC[C@H]2CCC[C@@H]2NCc2cc(Br)cc(Br)c2)nc2ccccc12,678
9,Cc1cccc2nc(-c3cccc(-c4ccc(NC(=O)c5c[nH]cn5)cc4)c3)[nH]c12,722
10,C=CCN1CCC(N(Cc2cccc(Oc3ccccc3)c2)C(=O)C(c2ccccc2)c2ccccc2)CC1,1140
11,N[C@@H](Cc1cc(I)c(Oc2ccc(O)c(C(=O)O)c2)c(I)c1)C(=O)O,991
12,CS(=O)(=O)NCCCNCc1cccc(-c2cccc(-c3nc4cc(F)ccc4[nH]3)c2)c1,938
13,N=C(N)NN=Cc1c2ccc(Cl)cc2c(Cl)c2ccc(Cl)cc12,958
14,Cc1ccc(Nc2nccc(Nc3ccc4c(C)n[nH]c4c3)n2)cc1F,785
15,COc1cc2nccc(Nc3cc(C)cc(O)c3)c2cc1OC,905
16,Oc1ccc(Cc2cc(Oc3c(I)cc(CCc4ncc[nH]4)cc3I)ccc2O)cc1,712
17,O=C(NCc1cccc(F)c1)Nc1ccc(-c2cccc(-c3nc4ccccc4[nH]3)c2)cc1,894
18,Nc1nc(N)c2c(Oc3cccc4ccccc34)cccc2n1,1010
19,O=S(=O)(Nc1ccc(CCN2CCCCC2CCN2CCCC2)cc1)c1cccc2cccnc12 (stereo not given),1300
20,COc1ccc2c(N/N=C/c3cccc([N+](=O)[O-])c3)ccnc2c1,846
21,O=C(NCc1ccccc1)c1ccc(C(=O)NCC2CNCCO2)cc1 (stereo not given),1140
22,Cc1c(Cl)ccc2c(C(=O)Nc3ccncc3)cc(-c3cccnc3)nc12,777
23,COc1ccc(NC(=O)c2ccc(Br)c(C)c2)cc1N1CCN(CCCc2c[nH]c3ccccc23)CC1,382
24,CN1CCC(NCc2ccc(-c3cnc(NCc4ccccc4)nc3)cc2)CC1,827
25,CC(C)c1ccc(CN2CCC(CNC(=O)c3cc(-c4cccc(C(F)(F)F)c4)cs3)C2)cc1 (stereo not given),914

row,Compound,XC50 [nM]
1,CN(C)Cc1cccc(-c2ccc(Nc3nccc(NCC(O)c4ccccc4)n3)cc2)c1 (stereo not given),136
2,CC(C)CNCc1ccc(-c2cccc(CNc3ccc4ncccc4c3)c2)cc1,913
3,COc1cc2nc(NCCc3cccc(Cl)c3)nc(NCc3ccccc3)c2cc1OC,124
4,Cc1cc(N[C@@H](Cc2ccccc2)C(=O)NCCCOC(C)C)nc(NCCc2ccc(F)cc2)n1,934
5,CN(C)CCc1coc2ccc(C(=O)Nc3ccc(-c4ccc(O)cc4)cc3)cc12,1080
6,CON=Cc1sc(CNCCCN=c2cc(O)c3ccccc3[nH]2)c(C)c1Br,962
7,COc1ccccc1C(=O)Nc1ccc(Nc2nc(C)cc(N(C)C)n2)cc1,789
8,CC1(C)NC(N)=NC(=N)N1OCCSc1ccc(Cl)c(Cl)c1,3.2
9,Cc1ccc(Cc2c(C)nc3nc(N)nc(N)c3c2C)cc1,243
10,Cc1cc(NC2CCCC2)nc(Nc2ccccc2F)n1,926
11,COc1ccc2nc(-c3ccccc3)cc(N/N=C/c3ccc([N+](=O)[O-])o3)c2c1,202
12,O=C(NCC1CCN(CC2CCCCC2)C1)c1cc(-c2cccc(Cl)c2)cs1 (stereo not given),1090
13,Oc1ccc(CN2CCN(CCOC(c3ccccc3)c3ccccc3)CC2)cc1Cl,806
14,Cc1c(C)n(C2CCCCC2)c2ncnc(OC3CCN(CC(=O)N4CCCC4)CC3)c12,1450
15,COc1ccc2c(c1)CCN(CCN1CCC(CNC(=O)c3ccc(-c4ccc(C#N)cc4)cc3)CC1)C2,617
16,CNCCNC(=O)C1Cc2c([nH]c3c(C)cccc23)C(c2ccc(Cl)c(Cl)c2)N1 (stereo not given),716
17,CC(C)(CNC(=O)C1CCN(CCOCc2ccccc2)CC1)c1nc(-c2ccc(Cl)c(O)c2)c(-c2ccncc2)[nH]1,620
18,N#Cc1ccc2c(c1)CN(CC[C@H]1CC[C@H](NC(=O)/C=C/c3c[nH]c4ccccc34)CC1)CC2,986
19,Cc1cc(OCCCN2CCCCC2C)ccc1NC(=O)COc1ccc(Cl)cc1C(=O)c1cc(Cl)cc(C#N)c1 (stereo not given),981
20,COc1cc2c(c(Cl)c1OC)CCN(Cc1ccccc1)CC2c1ccc(C(N)=O)cc1 (stereo not given),848
21,CCCOc1ccccc1C(=O)Nc1nonc1-c1ccc(OCC)c(OCC)c1,711
22,CN(C)c1nc2cc(-n3cnc4cc(-c5ccc(Cl)cc5)sc4c3=O)ccc2n1CCCN1CCCCC1,845
23,COc1ccc(-c2ccc(NC(=O)c3cccc(Cl)c3)c(F)c2)cc1CN1CCCN(C)CC1,679
24,CC(=O)Nc1nc(C(=O)Nc2cccc(-c3ccc(-c4nc5cc(F)ccc5[nH]4)cc3)c2)cs1,288
25,Oc1ccc(-c2cc(COc3ccccc3C(F)(F)F)c(C3=CCNCC3)cc2COc2ccccc2C(F)(F)F)cc1,775

row,Compound,XC50 [nM]
1,Nc1ccn([C@@H]2O[C@H](COC(c3ccccc3)(c3ccccc3)c3ccccc3)[C@@H](O)[C@@H]2O)c(=O)n1,834
2,Cc1nn(C)cc1C(C)Nc1nncc(-c2ccc(C(F)(F)F)cc2)n1 (stereo not given),246
3,CN1CCN(c2cc3c(cc2Cl)CCN3C(=O)Cc2ccc(Cl)c(NC(=O)Nc3cccc(C#N)c3)c2)CC1,637
4,CC(C)CCN1CCCN(Cc2ccc(C(=O)Nc3ccc(C(C)(C)C)cc3)cc2)CC1,867
5,COc1cc(Nc2ccnc3ccc(C(F)(F)F)cc23)cc(OC)c1OC,698
6,Cc1cc(=O)[nH]c(-n2nc(C)cc2NC(=O)C(c2ccccc2)c2ccccc2)n1,839
7,O=S(=O)(Nc1cccc(F)c1CNCc1ccccn1)c1ccc(Cl)c(Cl)c1,889
8,O=S(=O)(c1ccc(OCc2ccc(Cl)cc2)cc1)c1cc2c(cc1OCc1ccccc1)CCN(CC1CC1)CC2,1110
9,CC(=O)N(C)c1cccc(C(=O)Nc2ccc(-c3cccc(-c4nc5cccc(C)c5[nH]4)c3)cc2)c1,651
10,CC(=O)Nc1ccc(OCCN(Cc2ccccc2OC(F)(F)F)c2ccc(C(F)(F)F)c(C#N)c2)c(Cl)c1,456
11,COc1ccccc1CCNc1nc(C)cc(N[C@@H](Cc2ccccc2)C(=O)NCCc2ccccc2)n1,1110
12,Cc1nc(-c2nc(NCc3ccc4c(c3)OCO4)ncc2-c2ccsc2)sc1C,103
13,Fc1ccc2ncc(Cl)c(CCN3CCC(NCc4cc5c(cn4)OCCO5)CC3)c2c1,884
14,CC(C)CCN1CCCN(Cc2cccc(C(=O)Nc3ccc(C(C)(C)C)cc3)c2)CC1,1100
15,COc1ccc2c(c1C1CCN(CCCCNC(=O)c3ccc(-c4ccc(Cl)cn4)cc3)CC1)CCCC2,1020
16,O=C(Nc1cccc(-c2ccc(-c3nc4cc(C(F)(F)F)ccc4[nH]3)cc2)c1)c1ccncc1,337
17,N#Cc1ccc(N2CCN(Cc3ccc(-c4ccc(-c5nc6ccccc6[nH]5)s4)cc3)CC2)nc1,1080
18,CN1CCc2cc(CN3CC4(C)CC3CC(C)(C)C4)c(O)cc2C(c2ccccc2)C1 (stereo not given),720
19,Cc1cccc2nc(-c3ccc(-c4cccc(NC(=O)CN5CCN(C)CC5)c4)s3)[nH]c12,826
20,O=C(Nc1ccc(-c2nc3ccccc3[nH]2)cc1)c1ccc(Cl)s1,595
21,O=C(/C=C/c1ccc(Cl)c(Cl)c1)NCCCCCN1CCCN(C(=O)Nc2cccc(F)c2)CC1,757
22,COc1ccc2ncc(F)c([C@@H](O)CN3CCC(NCc4ccc5c(c4)NCCS5)CC3)c2n1,504
23,Cc1nnsc1C(=O)Nc1cccc(-c2ccc(-c3nc4cccc(C)c4[nH]3)s2)c1,1120
24,O=C(/C=C/c1ccc(Cl)c(Cl)c1)NCCCCCN1CCCC(CNC(=O)/C=C/c2ccccc2)C1 (stereo not given),791
25,COC(=O)c1cccc(CN(CCC(O)(C(F)(F)F)C(F)(F)F)C(=O)CC2CCCC2)c1,909

row,Compound,XC50 [nM]
1,COc1ccc([N+](=O)[O-])cc1N(Cc1ccccc1-c1ccccc1)S(=O)(=O)c1ccc(C(F)(F)F)cc1,784
2,CCOC(=O)c1ccc(CC(C)NCC(O)c2cccc(C(F)(F)F)c2)cc1 (stereo not given),216
3,Cc1ccccc1C1CCN(c2ccc(NC(=O)c3ccc(Cl)nc3)cc2)CC1,1030
4,c1ccc(Oc2ccc(Nc3ccnc4ccc(-c5ccco5)cc34)cc2)cc1,928
5,CS(=O)(=O)c1ccc(CNCc2cccc(-c3cccc(-c4nc5cc(C(F)(F)F)ccc5[nH]4)c3)c2)cc1,182
6,CCN1C(=O)C(=NN=C(S)N2CCCC2)c2ccccc21,1000
7,CCCCc1cc(NCc2ccncc2)nc(Nc2ccc(OC)cc2)n1,1060
8,CC1(C)Cc2c([nH]c3ccccc23)C(CCCCCCCCC2=NC(C)(C)Cc3c2[nH]c2ccccc32)=N1,933
9,Nc1nccc2ccc(-c3ccc4nccn4c3)cc12,101
10,CN(C)CCNCc1nc(-c2ccc3c(Nc4ccc(Cl)cc4F)ccnc3c2)cs1,809
11,Cc1cc(N[C@@H](CC(C)C)C(=O)NC2CCCC2)nc(NCCc2ccc(F)cc2)n1,794
12,CCNc1cc(C(=O)N[C@@H](Cc2ccccc2)[C@H](O)CNCc2cc(OC)cc(OC)c2)cc(N2CCCC2=O)c1,736
13,CC(C)(C)OC(=O)N1CCC(C2CCN(C(=O)OC(C)(C)C)CC2)CC1,1160
14,Cc1ccccc1Cn1ccc2c3c(N)nc(N)nc3ccc21,3.2
15,CCCc1cc(Cc2cnc(N)nc2N)cc(CCC)c1OCCCCC(=O)O,195
16,CCOc1ccc(NC(C)=O)c(O)c1,843
17,O=C(Nc1cccc(CN2CCN(Cc3ccc(O)cc3)CC2)c1)c1ccc(Cl)c(Cl)c1,253
18,CC(C)CNCc1ccc(-c2cccc(CN(C(=O)NC3CCCCC3)C3CCN(Cc4ccccc4)CC3)c2)cc1,805
19,CN(C)Cc1c(O)ccc2oc(Cc3ccccc3)cc12,912
20,CC1(C)N=C(N)N=C(N)N1c1ccc(Br)cc1,9.2
21,CCC/C=C/c1c(CNCCCNc2cc(=O)c3ccccc3[nH]2)sc(CC)c1Br,889
22,O=C(Nc1cccc(Cl)c1)N[C@H]1CCN(Cc2ccc(OCCCN3CCCCC3)cc2)C1,729
23,CCCCCCCCc1c(C)nc(C)c(I)c1O,737
